Like-named read-outs stand apart in the source and are kept apart here.
Columns and labels:
[1] = Physical dependency (abstinence syndrome, body weight decrease after withdrawal following 4 weeks of s.c. administration); format: in vivo, male rats of Wistar strain; set-up: key to Abstinence syndrome: ++: severe decrease (about 5 % decrease); ++: moderate decrease; +: mild decrease; -: no decrease; conditions: rats
Protocol: Note: Groups of animals of male rats of Wistar strain (body weight, 150 g), each group consisting of 20 male rats, were subcutaneously given the test compound twice a day for 4 consecutive weeks. On the next day after drug withdrawal, the body weight was measured. The symbols have the following meanings: ++, severe decrease (about 5 % decrease); ++, moderate decrease; +, mild decrease; -, no decrease.

[2] = Analgesic activity (antagonism of the syndrome produced by intraperitoneal injection of 0.6 % aqueous acetic acid); format: in vivo, mice; conditions: for ED50: Mus musculus; for ED50 / analgesic activity compared with morphine: sc; for analgesic activity compared with pentazocin: s.c., result in words; for analgesic activity compared with morphine: mouse, in vivo
Protocol: Note: The test was based on the specific antagonism of the test compound to the typical syndrome produced by intraperitoneal injection of 0.6 % aqueous acetic acid. The syndrome was characterized by intermittent contractions of the abdomen, twisting and turning of the trunk and extension of the hind legs. A group of 5 mice was used for each dose level. The test compound was administered subcutaneously 20 minutes before the injection of acetic acid. […] The ED50 value was calculated according to the Litchfield-Wilcoxon's method.

[3] = mice, s.c. 20 minutes before the injection of acetic acid, Litchfield-Wilcoxon's method, read-out: ED50

Compound	Abstinence syndrome ([1]; s.c., 40 mg/kg/day for 4 weeks, twice a day, body weight measured on the next day after drug withdrawal)	physical dependency ([1]; subcutaneously, everyday for 4 weeks, result in words)	ED50 [2, 3] [mg/kg]	analgesic activity compared with pentazocin ([2]; mice)	analgesic activity compared with morphine [2]	ED50 [2] [mg/kg]
CC1CN(CCCC(=O)c2ccc(F)cc2)C2Cc3ccc(O)cc3C1(C)C2 (stereo not drawn) [2'-hydroxy-2-[γ-(p-fluorobenzoyl)-n-propyl]-4,5-dimethyl-6,7-benzomorphan]	-	did not produce any physical dependency	0.36	much more potent analgesic activity than pentazocin	more potent analgesic activity than morphine	
CC1CN(CCc2ccccc2)C2Cc3ccc(O)cc3C1(C)C2 (stereo not drawn) [2'-hydroxy-2-(β-phenylethyl)-4,5-dimethyl-6,7-benzomorphan]			0.23	much more potent analgesic activity than pentazocin	more potent analgesic activity than morphine	
CN1CC[C@]23c4c5ccc(O)c4O[C@H]2[C@@H](O)C=C[C@H]3[C@H]1C5 [Morphine, reference compound]						1.2

— patent publication US3961066A, “6,7-Benzomorphan derivatives” (priority 1973, dated 1976)
